Assay results published in patent EP4467141A1, “PYRAZOLO-QUINOLINES AS SELECTIVE INHIBITORS OF GENOTOXIC STRESS-INDUCED IKK/NF- KB PATHWAYS FOR CANCER THERAPY” (Max-Delbrück-Centrum für Molekulare Medizin in der …, priority 2023, dated 2024).

How the values were obtained:
Test in all cases: Kinase panel study
Format in all cases: biochemical
Settings in all cases: read-out: Percentage of inhibition; for inhibition at 1 µM: 1000nM; for inhibition at 10 µM: 10000nM
[1] = molecular target: T1, PIK3CA E545K/PIK3R1 (p11 0 alpha E545K/p85 alpha) (Homo sapiens, UniProt P42336, E545K)
T1 construct: purchased Thermo Fisher Scientific
Summary of the method: (§1)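 Outsourced panel screen. Format: ZLyte or Adapta, run per the manufacturer's procedures. Read-out: inhibition (%) at a single dose of 10 µM or 1 µM; IC50s also generated.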

NEK2 = molecular target: T2, NEK2 (Homo sapiens, UniProt P51955)
T2 construct: purchased Thermo Fisher Scientific
T2 sequence (P51955 1-445): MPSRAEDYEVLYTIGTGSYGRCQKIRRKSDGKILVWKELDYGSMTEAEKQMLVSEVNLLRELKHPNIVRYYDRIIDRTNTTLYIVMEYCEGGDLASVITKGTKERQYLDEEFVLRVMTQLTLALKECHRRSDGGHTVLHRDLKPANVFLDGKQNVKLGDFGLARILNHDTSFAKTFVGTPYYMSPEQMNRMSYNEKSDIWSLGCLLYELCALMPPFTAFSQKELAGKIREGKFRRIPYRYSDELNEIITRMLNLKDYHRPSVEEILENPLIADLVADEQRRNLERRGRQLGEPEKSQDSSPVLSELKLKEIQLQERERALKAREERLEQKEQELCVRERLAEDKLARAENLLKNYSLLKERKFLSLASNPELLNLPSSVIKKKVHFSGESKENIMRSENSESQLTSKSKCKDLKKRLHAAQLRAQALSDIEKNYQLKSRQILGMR
Summary of the method: as §1

CHEK1 (CHK1) = molecular target: T3, CHEK1 (CHK1) (Homo sapiens, UniProt O14757)
T3 construct: purchased Thermo Fisher Scientific
T3 sequence (O14757 1-476): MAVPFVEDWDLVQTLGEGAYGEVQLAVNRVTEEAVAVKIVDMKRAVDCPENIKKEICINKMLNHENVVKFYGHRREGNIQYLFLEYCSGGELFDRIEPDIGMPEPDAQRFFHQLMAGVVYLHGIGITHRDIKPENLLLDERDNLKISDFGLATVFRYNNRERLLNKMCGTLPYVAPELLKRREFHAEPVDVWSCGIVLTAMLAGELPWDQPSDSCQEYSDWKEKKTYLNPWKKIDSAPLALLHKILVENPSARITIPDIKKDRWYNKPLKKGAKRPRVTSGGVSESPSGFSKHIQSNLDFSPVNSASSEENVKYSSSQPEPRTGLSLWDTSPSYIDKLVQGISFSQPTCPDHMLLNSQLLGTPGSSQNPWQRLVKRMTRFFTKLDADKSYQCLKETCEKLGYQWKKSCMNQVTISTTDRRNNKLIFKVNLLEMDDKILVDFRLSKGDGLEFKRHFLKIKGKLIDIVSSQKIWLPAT
Summary of the method: as §1

GRK4 = molecular target: T4, GRK4 (Homo sapiens, UniProt P32298)
T4 construct: purchased Thermo Fisher Scientific
T4 sequence (P32298 whole entry): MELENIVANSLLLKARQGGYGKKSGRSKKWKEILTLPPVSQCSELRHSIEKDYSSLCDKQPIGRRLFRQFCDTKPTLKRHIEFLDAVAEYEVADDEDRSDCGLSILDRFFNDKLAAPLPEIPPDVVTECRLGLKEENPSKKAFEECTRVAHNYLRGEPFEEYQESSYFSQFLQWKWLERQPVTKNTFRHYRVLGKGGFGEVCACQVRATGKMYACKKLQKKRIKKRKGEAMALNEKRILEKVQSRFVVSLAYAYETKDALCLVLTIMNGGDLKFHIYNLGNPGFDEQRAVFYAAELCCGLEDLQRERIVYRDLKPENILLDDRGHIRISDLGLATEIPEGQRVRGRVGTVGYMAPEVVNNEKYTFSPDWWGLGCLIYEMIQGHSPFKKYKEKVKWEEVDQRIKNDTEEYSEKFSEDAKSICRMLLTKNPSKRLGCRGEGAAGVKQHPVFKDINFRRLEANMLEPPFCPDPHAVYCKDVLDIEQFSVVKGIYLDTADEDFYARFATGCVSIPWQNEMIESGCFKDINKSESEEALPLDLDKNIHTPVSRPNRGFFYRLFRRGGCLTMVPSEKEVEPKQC
Summary of the method: as §1

NEK6 = molecular target: T5, NEK6 (Homo sapiens, UniProt Q9HC98)
T5 construct: purchased Thermo Fisher Scientific
Summary of the method: as §1

CSK = molecular target: T6, CSK (Homo sapiens, UniProt P41240)
T6 construct: purchased Thermo Fisher Scientific
T6 sequence (P41240 whole entry): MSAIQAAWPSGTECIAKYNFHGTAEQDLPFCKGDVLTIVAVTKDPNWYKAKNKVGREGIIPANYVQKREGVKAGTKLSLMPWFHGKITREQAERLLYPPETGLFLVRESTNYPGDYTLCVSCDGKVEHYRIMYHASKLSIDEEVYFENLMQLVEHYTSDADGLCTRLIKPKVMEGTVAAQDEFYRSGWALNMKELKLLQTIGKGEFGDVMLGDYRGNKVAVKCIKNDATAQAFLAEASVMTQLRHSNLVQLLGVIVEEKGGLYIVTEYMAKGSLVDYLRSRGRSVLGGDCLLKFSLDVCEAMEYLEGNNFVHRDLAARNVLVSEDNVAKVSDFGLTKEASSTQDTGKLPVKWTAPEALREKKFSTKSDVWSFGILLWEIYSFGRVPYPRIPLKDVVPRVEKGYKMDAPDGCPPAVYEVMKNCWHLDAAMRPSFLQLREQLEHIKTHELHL
Summary of the method: as §1

CDK4/cyclin D1 = molecular target: T7, CDK4/cyclin D1 (Homo sapiens, UniProt P11802)
T7 construct: purchased Thermo Fisher Scientific
T7 sequence (P11802 whole entry): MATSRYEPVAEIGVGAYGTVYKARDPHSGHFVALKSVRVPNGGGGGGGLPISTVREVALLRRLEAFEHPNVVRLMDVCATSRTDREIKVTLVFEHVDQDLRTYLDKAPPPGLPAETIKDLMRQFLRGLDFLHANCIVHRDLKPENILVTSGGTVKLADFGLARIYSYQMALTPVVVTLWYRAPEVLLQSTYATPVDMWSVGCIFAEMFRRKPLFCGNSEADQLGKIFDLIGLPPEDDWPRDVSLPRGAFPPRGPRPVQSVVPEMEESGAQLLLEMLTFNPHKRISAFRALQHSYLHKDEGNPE
T7 sequence (P24385 whole entry partner): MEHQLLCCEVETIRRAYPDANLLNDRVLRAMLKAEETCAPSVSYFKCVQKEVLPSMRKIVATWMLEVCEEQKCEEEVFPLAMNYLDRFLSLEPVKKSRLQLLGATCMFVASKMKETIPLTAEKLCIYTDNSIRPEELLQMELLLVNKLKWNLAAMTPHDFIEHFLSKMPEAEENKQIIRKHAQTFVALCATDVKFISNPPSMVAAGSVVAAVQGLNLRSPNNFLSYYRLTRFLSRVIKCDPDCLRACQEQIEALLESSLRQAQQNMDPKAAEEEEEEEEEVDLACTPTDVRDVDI
Summary of the method: as §1

FYN = molecular target: T8, FYN (Homo sapiens, UniProt P06241)
T8 construct: purchased Thermo Fisher Scientific
T8 sequence (P06241 whole entry): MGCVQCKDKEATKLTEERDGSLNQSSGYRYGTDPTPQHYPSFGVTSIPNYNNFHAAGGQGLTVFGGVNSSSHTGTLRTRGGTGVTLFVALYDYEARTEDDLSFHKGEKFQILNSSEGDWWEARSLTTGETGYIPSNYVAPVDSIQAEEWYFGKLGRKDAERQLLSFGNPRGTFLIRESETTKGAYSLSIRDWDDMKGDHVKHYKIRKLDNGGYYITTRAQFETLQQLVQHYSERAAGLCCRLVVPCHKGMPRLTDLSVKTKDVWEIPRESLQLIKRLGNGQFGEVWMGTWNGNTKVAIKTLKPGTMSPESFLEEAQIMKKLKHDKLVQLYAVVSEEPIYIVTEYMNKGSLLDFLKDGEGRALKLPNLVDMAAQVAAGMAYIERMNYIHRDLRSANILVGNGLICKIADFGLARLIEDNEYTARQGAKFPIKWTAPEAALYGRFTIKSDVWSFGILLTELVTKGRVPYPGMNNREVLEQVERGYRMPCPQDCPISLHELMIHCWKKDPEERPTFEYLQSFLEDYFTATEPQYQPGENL
Summary of the method: as §1

PIM3 = molecular target: T9, PIM3 (Homo sapiens, UniProt Q86V86)
T9 construct: purchased Thermo Fisher Scientific
Summary of the method: as §1

CDK2/cyclin A = molecular target: T10, CDK2/cyclin A (Homo sapiens, UniProt P24941)
T10 construct: purchased Thermo Fisher Scientific
Summary of the method: as §1

DAPK3 (ZIPK) = molecular target: T11, DAPK3 (ZIPK) (Homo sapiens, UniProt O43293)
T11 construct: purchased Thermo Fisher Scientific
T11 sequence (O43293 whole entry): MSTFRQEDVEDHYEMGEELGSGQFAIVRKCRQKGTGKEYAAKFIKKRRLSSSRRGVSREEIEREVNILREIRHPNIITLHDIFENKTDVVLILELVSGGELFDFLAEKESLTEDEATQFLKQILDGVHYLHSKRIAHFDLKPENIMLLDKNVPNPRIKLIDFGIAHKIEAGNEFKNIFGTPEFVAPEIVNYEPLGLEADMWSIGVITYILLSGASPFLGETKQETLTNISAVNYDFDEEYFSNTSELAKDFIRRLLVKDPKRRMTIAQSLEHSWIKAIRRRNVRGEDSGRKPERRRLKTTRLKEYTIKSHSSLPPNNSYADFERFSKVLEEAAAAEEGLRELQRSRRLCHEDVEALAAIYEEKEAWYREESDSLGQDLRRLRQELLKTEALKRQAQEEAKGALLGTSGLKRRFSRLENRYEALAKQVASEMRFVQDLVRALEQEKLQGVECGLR
Summary of the method: as §1

ABL1 F317L = molecular target: T12, ABL1 F317L (Homo sapiens, UniProt P00519, F317L)
T12 construct: purchased Thermo Fisher Scientific
T12 sequence (P00519 whole entry F317L): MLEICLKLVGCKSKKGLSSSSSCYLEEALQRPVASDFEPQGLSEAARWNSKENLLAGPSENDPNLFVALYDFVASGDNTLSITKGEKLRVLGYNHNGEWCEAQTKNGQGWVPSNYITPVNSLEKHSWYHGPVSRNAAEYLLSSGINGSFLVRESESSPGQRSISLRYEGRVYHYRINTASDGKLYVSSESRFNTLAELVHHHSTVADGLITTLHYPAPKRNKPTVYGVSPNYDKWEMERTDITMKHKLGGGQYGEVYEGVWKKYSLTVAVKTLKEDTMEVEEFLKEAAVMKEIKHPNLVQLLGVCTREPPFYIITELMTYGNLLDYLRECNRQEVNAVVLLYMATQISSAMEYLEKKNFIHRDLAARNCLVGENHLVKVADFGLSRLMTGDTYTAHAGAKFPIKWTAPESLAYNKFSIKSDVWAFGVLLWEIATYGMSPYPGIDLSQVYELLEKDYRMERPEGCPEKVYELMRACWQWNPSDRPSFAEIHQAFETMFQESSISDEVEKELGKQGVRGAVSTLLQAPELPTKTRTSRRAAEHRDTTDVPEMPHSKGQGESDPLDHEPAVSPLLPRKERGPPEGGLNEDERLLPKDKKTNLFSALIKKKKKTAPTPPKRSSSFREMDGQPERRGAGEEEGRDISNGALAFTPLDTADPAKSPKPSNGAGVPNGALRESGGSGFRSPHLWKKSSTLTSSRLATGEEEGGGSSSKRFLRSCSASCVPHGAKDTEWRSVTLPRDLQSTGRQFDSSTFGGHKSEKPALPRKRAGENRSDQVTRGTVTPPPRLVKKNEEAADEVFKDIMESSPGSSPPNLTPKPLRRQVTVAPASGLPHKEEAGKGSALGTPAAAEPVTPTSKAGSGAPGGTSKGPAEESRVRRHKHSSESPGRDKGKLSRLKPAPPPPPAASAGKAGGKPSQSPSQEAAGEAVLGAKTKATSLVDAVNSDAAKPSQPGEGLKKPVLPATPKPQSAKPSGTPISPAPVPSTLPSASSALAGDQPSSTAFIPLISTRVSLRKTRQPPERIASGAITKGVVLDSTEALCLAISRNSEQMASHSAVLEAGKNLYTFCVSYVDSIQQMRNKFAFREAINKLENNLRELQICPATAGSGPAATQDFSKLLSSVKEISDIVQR
Summary of the method: as §1

EGFR (ErbB1) T790M = molecular target: T13, EGFR (ErbB1) T790M (Homo sapiens, UniProt P00533, T790M)
T13 construct: purchased Thermo Fisher Scientific
T13 sequence (P00533 25-1210 T790M): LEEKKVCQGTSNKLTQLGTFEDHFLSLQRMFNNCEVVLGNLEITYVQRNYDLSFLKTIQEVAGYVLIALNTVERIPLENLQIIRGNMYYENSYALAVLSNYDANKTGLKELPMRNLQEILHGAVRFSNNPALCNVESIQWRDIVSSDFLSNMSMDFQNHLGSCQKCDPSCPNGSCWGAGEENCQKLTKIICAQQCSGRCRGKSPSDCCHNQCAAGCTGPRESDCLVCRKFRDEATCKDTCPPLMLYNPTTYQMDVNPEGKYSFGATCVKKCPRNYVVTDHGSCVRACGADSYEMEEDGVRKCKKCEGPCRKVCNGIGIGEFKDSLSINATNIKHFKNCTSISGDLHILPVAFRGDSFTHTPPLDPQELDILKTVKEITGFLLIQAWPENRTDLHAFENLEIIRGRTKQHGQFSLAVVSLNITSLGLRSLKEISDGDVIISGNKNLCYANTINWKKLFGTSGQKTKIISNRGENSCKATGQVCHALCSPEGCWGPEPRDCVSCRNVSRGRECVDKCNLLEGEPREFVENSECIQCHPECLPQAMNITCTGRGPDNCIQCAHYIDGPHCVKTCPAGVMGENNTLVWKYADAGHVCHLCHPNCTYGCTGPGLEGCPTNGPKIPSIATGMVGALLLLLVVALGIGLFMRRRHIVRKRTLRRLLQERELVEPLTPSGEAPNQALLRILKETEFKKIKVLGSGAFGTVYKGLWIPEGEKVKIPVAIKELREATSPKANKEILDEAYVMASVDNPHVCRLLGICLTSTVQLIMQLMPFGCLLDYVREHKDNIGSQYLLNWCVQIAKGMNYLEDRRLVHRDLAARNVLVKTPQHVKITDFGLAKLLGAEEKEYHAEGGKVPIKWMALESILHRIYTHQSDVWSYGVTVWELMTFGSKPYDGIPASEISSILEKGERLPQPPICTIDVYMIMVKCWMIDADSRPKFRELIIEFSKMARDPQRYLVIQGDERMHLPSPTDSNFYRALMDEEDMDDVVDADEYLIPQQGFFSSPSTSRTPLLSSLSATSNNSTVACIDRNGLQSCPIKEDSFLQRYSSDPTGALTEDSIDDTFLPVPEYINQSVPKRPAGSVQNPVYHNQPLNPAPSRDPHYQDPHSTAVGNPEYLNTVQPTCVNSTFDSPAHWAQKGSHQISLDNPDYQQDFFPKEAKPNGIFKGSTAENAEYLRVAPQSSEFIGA
Summary of the method: as §1

For `COc1ccc2c(c1OC)c(=O)n1c3ccc(O)cc3c3ccnc2c31` [MW01, 5-Hydroxy-10,11-dimethoxy-9H-benzo[c]indolo[3,2,1-ij][1,5]naphthyridin-9-one], the inhibition at 1 µM [1] was 91%, the inhibition at 10 µM [1] was 97% and the inhibition at 1 µM (NEK2) was -4%. It also gave an inhibition at 10 µM (NEK2) of 0%, an inhibition at 1 µM (CHEK1 (CHK1)) of 4% and an inhibition at 10 µM (CHEK1 (CHK1)) of 13%. It also gave an inhibition at 1 µM (GRK4) of 8%, an inhibition at 10 µM (GRK4) of 12% and an inhibition at 1 µM (NEK6) of 4%. It also gave an inhibition at 10 µM (NEK6) of -4%, an inhibition at 1 µM (CSK) of 11% and an inhibition at 10 µM (CSK) of 18%. For the same compound, the inhibition at 1 µM (CDK4/cyclin D1) was -8%, the inhibition at 10 µM (CDK4/cyclin D1) was -4% and the inhibition at 1 µM (FYN) was 3%. The inhibition at 10 µM (FYN) was 15%, the inhibition at 1 µM (PIM3) was 22% and the inhibition at 10 µM (PIM3) was 42%. The inhibition at 1 µM (CDK2/cyclin A) was 14%, the inhibition at 10 µM (CDK2/cyclin A) was 37% and the inhibition at 1 µM (DAPK3 (ZIPK)) was 2%. The inhibition at 10 µM (DAPK3 (ZIPK)) was 9%, the inhibition at 1 µM (ABL1 F317L) was 8% and the inhibition at 10 µM (ABL1 F317L) was 13%. The inhibition at 1 µM (EGFR (ErbB1) T790M) was 8% and the inhibition at 10 µM (EGFR (ErbB1) T790M) was 19%.
`COc1ccc2cc3c(N)nn(C(=O)c4cccc(N(C)C)c4)c3nc2c1` [MW05, (3-Amino-7-methoxypyrazolo[3,4-b]quinolin-1-yl)-[3-(dimethylamino)phenyl]methanone] showed an inhibition at 1 µM [1] of 15%, an inhibition at 10 µM [1] of 61% and an inhibition at 1 µM (NEK2) of -3%. For the same compound, the inhibition at 10 µM (NEK2) was 1%, the inhibition at 1 µM (CHEK1 (CHK1)) was 16% and the inhibition at 10 µM (CHEK1 (CHK1)) was 27%. The inhibition at 1 µM (GRK4) was -1%, the inhibition at 10 µM (GRK4) was 2% and the inhibition at 1 µM (NEK6) was 1%. The inhibition at 10 µM (NEK6) was -4%, the inhibition at 1 µM (CSK) was 9% and the inhibition at 10 µM (CSK) was 13%. The inhibition at 1 µM (CDK4/cyclin D1) was -3%, the inhibition at 10 µM (CDK4/cyclin D1) was -1% and the inhibition at 1 µM (FYN) was 4%. The inhibition at 10 µM (FYN) was 5%, the inhibition at 1 µM (PIM3) was 11% and the inhibition at 10 µM (PIM3) was 2%. It also gave an inhibition at 1 µM (CDK2/cyclin A) of 12%, an inhibition at 10 µM (CDK2/cyclin A) of 25% and an inhibition at 1 µM (DAPK3 (ZIPK)) of 2%. For the same compound, the inhibition at 10 µM (DAPK3 (ZIPK)) was -3%, the inhibition at 1 µM (ABL1 F317L) was 6% and the inhibition at 10 µM (ABL1 F317L) was 4%. The inhibition at 1 µM (EGFR (ErbB1) T790M) was 4% and the inhibition at 10 µM (EGFR (ErbB1) T790M) was 0%.
